Laboratory results taken from ChEMBL document CHEMBL1133209, “Synthesis and SAR of benzyl and phenoxymethylene oxadiazole benzenesulfonamides as selective beta3 adrenergic receptor agonist antiobesity agents” (Bioorg Med Chem Lett, 2000).

Tests used:
[1] = molecular target: T1, Beta-3 adrenergic receptor (Homo sapiens, UniProt P13945); assay: Stimulation of cAMP levels in CHO cells expressing the recombinant human beta-3 adrenergic receptor; assay type: functional, cell-based
Target sequence in this assay (P13945 whole entry): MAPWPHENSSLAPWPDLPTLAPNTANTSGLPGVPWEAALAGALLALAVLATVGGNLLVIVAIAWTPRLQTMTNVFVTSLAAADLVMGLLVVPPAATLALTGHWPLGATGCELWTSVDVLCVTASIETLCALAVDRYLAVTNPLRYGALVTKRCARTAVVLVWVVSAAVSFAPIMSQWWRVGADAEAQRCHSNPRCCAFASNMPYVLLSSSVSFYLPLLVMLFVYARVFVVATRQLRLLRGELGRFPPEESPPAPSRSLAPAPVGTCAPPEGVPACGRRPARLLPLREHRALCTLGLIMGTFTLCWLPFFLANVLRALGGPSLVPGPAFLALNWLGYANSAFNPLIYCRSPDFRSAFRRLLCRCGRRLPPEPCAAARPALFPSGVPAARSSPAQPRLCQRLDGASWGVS

[2] = molecular target: Beta-2 adrenergic receptor (Homo sapiens, UniProt P07550); assay: Binding affinity to recombinant human beta-2 adrenergic receptor prepared from CHO cells in the presence of [125I]iodocyanopindolol; assay type: cell-based
Sequence of Beta-2 adrenergic receptor (P07550 whole entry): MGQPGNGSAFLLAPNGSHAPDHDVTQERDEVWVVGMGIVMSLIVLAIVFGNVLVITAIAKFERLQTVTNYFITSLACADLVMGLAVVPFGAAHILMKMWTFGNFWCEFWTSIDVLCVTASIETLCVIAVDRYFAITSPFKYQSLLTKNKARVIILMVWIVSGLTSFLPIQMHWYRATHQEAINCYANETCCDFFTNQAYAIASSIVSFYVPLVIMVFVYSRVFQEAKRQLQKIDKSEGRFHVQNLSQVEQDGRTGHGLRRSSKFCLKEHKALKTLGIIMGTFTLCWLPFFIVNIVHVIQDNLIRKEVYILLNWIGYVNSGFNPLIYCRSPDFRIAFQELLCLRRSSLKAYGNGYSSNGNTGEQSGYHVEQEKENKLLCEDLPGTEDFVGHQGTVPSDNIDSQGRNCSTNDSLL

[3] = molecular target: T1, Beta-3 adrenergic receptor; assay: Adenylyl cyclase activation given as % of the maximal stimulation with isoproterenol in CHO cells expressing recombinant human beta-3 adrenergic receptor; assay type: functional, cell-based
Target sequence in this assay (P13945 whole entry, looked up): as the sequence (P13945 whole entry) above

[4] = molecular target: Beta-1 adrenergic receptor (Homo sapiens, UniProt P08588); assay: Binding affinity to recombinant human beta-1 adrenergic receptor expressed in CHO cells in the presence of [125I]iodocyanopindolol; assay type: cell-based
Sequence of Beta-1 adrenergic receptor (P08588 whole entry): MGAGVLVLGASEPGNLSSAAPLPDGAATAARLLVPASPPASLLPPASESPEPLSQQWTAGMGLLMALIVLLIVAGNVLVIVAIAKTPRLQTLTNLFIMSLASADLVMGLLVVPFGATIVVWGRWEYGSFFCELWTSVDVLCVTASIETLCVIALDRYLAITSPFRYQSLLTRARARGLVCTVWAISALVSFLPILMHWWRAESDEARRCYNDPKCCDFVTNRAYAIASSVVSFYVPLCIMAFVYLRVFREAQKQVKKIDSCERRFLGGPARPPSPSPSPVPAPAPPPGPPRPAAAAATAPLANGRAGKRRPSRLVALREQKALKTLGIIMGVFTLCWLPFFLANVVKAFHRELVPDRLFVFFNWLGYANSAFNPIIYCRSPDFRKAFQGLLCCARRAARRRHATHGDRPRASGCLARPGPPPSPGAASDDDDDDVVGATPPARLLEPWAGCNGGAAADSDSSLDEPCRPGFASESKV

[5] = The compound was tested for bioavailability in dogs; assay type: ADME, organism-based, Canis lupus familiaris; conditions: dog, in vivo
[6] = Half life was determined; assay type: ADME, organism-based, Canis lupus familiaris; conditions: dog, in vivo

Row | Compound | EC50 [1] | IC50 [2] | Activation [3] | IC50 [4] | bioavailability [5] | half-life [6]
1 | CC(=O)Nc1ccc(Cc2nc(-c3ccc(S(=O)(=O)Nc4ccc(CCNC[C@H](O)c5cccnc5)cc4)cc3)no2)cc1 | 190 nM | 5000 nM | 98% | 3000 nM | – | –
2 | O=S(=O)(Nc1ccc(CCNC[C@H](O)c2cccnc2)cc1)c1ccc(-c2nc(Cc3ccc(F)c(F)c3)no2)cc1 | 12 nM | 2500 nM | 75% | 5000 nM | – | –
3 | O=S(=O)(Nc1ccc(CCNC[C@H](O)c2cccnc2)cc1)c1ccc(-c2noc(COc3ccc(F)cc3)n2)cc1 | 4 nM | 490 nM | 82% | 715 nM | – | –
4 | O=S(=O)(Nc1ccc(CCNC[C@H](O)c2cccnc2)cc1)c1ccc(-c2noc(Cc3cccc(OC(F)(F)F)c3)n2)cc1 | 29 nM | 5500 nM | 86% | 2000 nM | – | –
5 | O=S(=O)(Nc1ccc(CCNC[C@H](O)c2cccnc2)cc1)c1ccc(-c2noc(Cc3ccc4ccccc4c3)n2)cc1 | 5 nM | 1500 nM | 73% | 550 nM | – | –
6 | O=S(=O)(Nc1ccc(CCNC[C@H](O)c2cccnc2)cc1)c1ccc(-c2noc(Cc3ccc(F)cc3)n2)cc1 | 12 nM | 1660 nM | 74% | 3000 nM | – | –
7 | O=S(=O)(Nc1ccc(CCNC[C@H](O)c2cccnc2)cc1)c1ccc(-c2noc(Cc3cccc(F)c3)n2)cc1 | 12 nM | 695 nM | 93% | 5000 nM | – | –

More lines, in order of falling EC50 [1], values ahead:

Row | EC50 [1] | IC50 [2] | Activation [3] | IC50 [4] | bioavailability [5] | half-life [6] | Compound
8 | 64 nM | 8000 nM | 79% | 9000 nM | – | – | O=S(=O)(Nc1ccc(CCNC[C@H](O)c2cccnc2)cc1)c1ccc(-c2noc(COc3ccc(C4N=NN=N4)cc3)n2)cc1
9 | 11 nM | 2500 nM | 81% | 7000 nM | – | – | CS(=O)(=O)NC(c1ccc(F)cc1)c1nc(-c2ccc(S(=O)(=O)Nc3ccc(CCNC[C@H](O)c4cccnc4)cc3)cc2)no1 (some centres not stated)
10 | 8 nM | 5000 nM | 82% | 1000 nM | – | – | O=S(=O)(Nc1ccc(CCNC[C@H](O)c2cccnc2)cc1)c1ccc(-c2noc(COc3ccc(OC(F)(F)F)cc3)n2)cc1
11 | 7 nM | 90000 nM | 76% | 2500 nM | – | – | O=S(=O)(Nc1ccc(CCNC[C@H](O)c2cccnc2)cc1)c1ccc(-c2noc(COc3ccc4ccccc4c3)n2)cc1
12 | 6 nM | 980 nM | 61% | 2300 nM | 54% | 3.4 h | O=S(=O)(Nc1ccc(CCNC[C@H](O)c2cccnc2)cc1)c1ccc(-c2noc(Cc3ccc(F)c(F)c3)n2)cc1
13 | 4 nM | 1430 nM | 85% | 3660 nM | – | – | O=S(=O)(Nc1ccc(CCNC[C@H](O)c2cccnc2)cc1)c1ccc(-c2noc(COc3ccc(F)c(F)c3)n2)cc1
14 | 3 nM | 9500 nM | 74% | 16000 nM | – | – | CSc1ccc(Cc2nc(-c3ccc(S(=O)(=O)Nc4ccc(CCNC[C@H](O)c5cccnc5)cc4)cc3)no2)cc1
15 | 3 nM | 1500 nM | 67% | 4500 nM | – | – | CNC(=O)NC(c1ccc(F)cc1)c1nc(-c2ccc(S(=O)(=O)Nc3ccc(CCNC[C@H](O)c4cccnc4)cc3)cc2)no1 (some centres not stated)
